Columns and labels:
[1] = biological target: T1, PAF binding, dog platelets (Canis lupus familiaris, UniProt A0A8I3NSH0); assay: PAF Binding Assay (3H-PAF binding to washed dog platelets); conditions: 10 minutes at room temperature
T1 sequence (A0A8I3NSH0 1-343): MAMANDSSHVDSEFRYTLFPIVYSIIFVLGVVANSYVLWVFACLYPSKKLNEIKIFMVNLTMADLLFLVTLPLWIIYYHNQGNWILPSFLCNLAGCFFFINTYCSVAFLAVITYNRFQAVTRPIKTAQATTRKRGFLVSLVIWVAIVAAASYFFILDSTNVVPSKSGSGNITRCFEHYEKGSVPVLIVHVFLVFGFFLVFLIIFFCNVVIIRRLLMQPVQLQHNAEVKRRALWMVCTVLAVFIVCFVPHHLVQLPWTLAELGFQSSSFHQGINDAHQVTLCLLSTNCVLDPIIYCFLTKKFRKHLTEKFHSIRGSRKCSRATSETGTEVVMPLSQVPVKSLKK
Method: The binding assay was performed in 400 μl polyethylene microcentrifuge tubes (Beckman) containing 50 μl of an oil mixture of 2 parts Siliconol AR200 (Serva): 1 part Silicone Fluid (Arthur H. Thomas). Buffer, standards, or analogs 150 μl total volume) were added to the tubes. Radiolabelled ^3 H-PAF (50 μl) was then added to the tubes. The reaction was started by the addition of 50 μl of dog platelets (2×10^7 platelets). The tubes were capped, inverted several times to mix, and incubated for 10 minutes at room temperature. The platelets were separated from the incubation mixture by centrifuging 1 minute in a Beckman Microfuge B centrifuge. The tip of the microfuge tube was cut off, and the platelets were washed out of the tip with 200 μl of 50% methanol (Burdick and Jackson). Aquasol (NEN, 10 ml) was added and the radioactivity in the samples was determined using an LS 8100 Beckman liquid scintillation counter linked to a Techtran tape recorder. Data was processed through an in-house computer system. Alternatively, radioactivity was determined using a Searle Mark III liquid scintillation counter linked to a Iso-Data microprocessor.
Blood was collected from anesthesized or unanesthesized dogs into 5ml plastic centrifuge tubes containing 3.8% sodium citrate as the anticoagulant (1 volume of citrate/9 volumes of blood). The red cells were removed by centrifugation for 15 minutes at 600 rpm (100-125 g) at room temperature. An aliquot of the supernatant platelet rich Plasma (PRP) was saved for cell counting and the remainder was acidified to pH 6.5 with 0.15M citric acid. The platelet pellet was obtained after a 10 minute centrifugation at 2000 rpm (1000 g) at room temperature. Washed platelets were prepared by resuspending the platelet pellet once with PBS containing 1 mM EDTA, centrifuging as noted, and then resuspending the platelets in 0.1% BSA-PBS. An aliquot of the washed platelets was counted, platelets used for binding assays were diluted to 2×10^7 platelets/assay tube (4×10^8 platelets/ml).

[2] = test system: PAF-Induced Bronchoconstriction; assay: PAF-Induced Bronchoconstriction Assay; type: in vivo, guinea pig; conditions: for inhibition in vivo at 1 mg/kg / inhibition in vivo at 50 mg/kg: Cavia porcellus; for inhibition in vivo at 1 mg/kg: 1 min; for inhibition in vivo at 50 mg/kg: po, 2 hours pretreatment
Method: The in vivo ability of compounds to inhibit PAF-induced bronchoconstriction in guinea pigs was assessed by the intravenous and oral routes of administration. The intravenous technique utilized male guinea pigs (Hartley strain, Charles River) weighing 400-600 g. Animals were anesthetized with urethane (2 g/kg) intraperitoneally and a polyethylene cannula was inserted into the jugular vein for intravenous drug administration. Tracheal pressure ([…]) was recorded from a Statham pressure transducer (P 32 AA). Propranolol was administered 5 minutes prior to challenge with PAF. Two minutes later spontaneous breathing was arrested with succinylcholine chloride (1.2 mg/kg) administered intravenously, and the animals were ventilated with a Harvard (Model 680) small animal respirator set at 40 breaths/min and 4.0 cc stroke volume. Control vehicle or test drug was administered through the cannula into the jugular vein 1 minute before the animals were challenged with a maximum constrictory dose of PAF (1.0 μg/kg) given intravenously. The change in tracheal pressure was averaged for four control and four drug-treated animals and percent inhibition was calculated.
For determination of oral activity, animals were dosed with test compound or vehicle two hours prior to challenge with PAF (1.0 μg/kg, i.v.).
The change in tracheal pressure is determined by subtracting the steady state baseline achieved after administration of succinylcholine from the peak bronchoconstriction seen after challenge with PAF. The mean change in tracheal pressure is calculated for each test compound and compared to the mean change in tracheal pressure for the control animals to give the percent inhibition of bronchoconstriction. The standard error is calculated as the standard error of the mean.

[3] = test system: PAF-Induced Platelet Count Decrease; assay: PAF-Induced Platelet Count Decrease; type: in vivo, guinea pig; conditions: for inhibition in vivo at 3 mg/kg: Cavia porcellus, Platelet, 0.25 h, iv, 15 minutes pretreatment time, read-out: PAF-Induced Platelet Count Decrease % Inhibition, i.v.
Method: Male Hartley guinea pigs weighing between 500 and 900 grams were fed standard guinea pig chow and tap water ad libitum. PAF was solubilized in ethanol and stored as a 2 mM stock solution at -70° C. The stock solution of PAF was diluted to […] in Tris buffer pH 7.4 and 0.1% BSA for all experiments.
Guinea pigs were anesthetized with urethane (1.6 g/kg, i.p.). A catheter (PE50) was introduced into the right carotid artery for withdrawing blood. A second catheter PE10) was introduced into the jugular vein for injecting drugs and for administering the PAF challenge (75 ng/kg, i.v.). A control blood sample was obtained and platelets were counted in a whole blood platelet analyzer. PAF was then given and blood samples were taken 15, 30, and 60 seconds after the challenge for platelet counts. Fifteen minutes later, selected concentrations of the test compound were solubilized in DMSO and injected intravenously into a group of 4-6 animals. Only one concentration of the test drug was used in each animal group. Fifteen minutes after drug injection, blood samples were taken before and 15, 30, and 60 sec after the PAF challenge, and analyzed for platelet number.
Animals were anesthetized with sodium pentobarbital (35 mg/kg. i.p.) and the carotid artery and jugular vein were cannulated as described above. The cannulae were exteriorized at the base of the neck and the animals were allowed to recover. Conscious, unrestrained guinea pigs which were allowed to recover from surgery for at least 18 hours were used in the experiments. The animals were challenged two times with PAF (120 ng/kg, i.v.); the first to establish a consistent response to PAF and the second to serve as a control from the PAF challenge. Blood samples were taken before and 15, 30, and 45 seconds after PAF challenge and platelets were counted. Thirty minutes after the control PAF challenge, the animals were orally dosed with either gum acacia or the test compound. Animals were then challenged with PAF at 1, 3, 5, and 24 hours after the administration of the drug.
The % change, i.e., the difference in platelet number before and after PAF challenge was calculated by: [formula] The % activity of drug was then determined by
Statistical significance (p≤0.05) of the difference between the mean PAF control and mean drug treated activity was determined with the pared Students's t-test.

[4] = 1 mg/kg iv, 1 minute pretreatment

| IC50 [1] [nM] | Structure (SMILES) | inhibition in vivo at 1 mg/kg [2, 4] [%] | inhibition in vivo at 50 mg/kg [2] [%] | PAF-Induced Bronchoconstriction % Inhibition, 1 mg/kg iv [2, 4] | inhibition in vivo at 3 mg/kg [3] [%] | PAF-Induced Platelet Count Decrease % Inhibition, po ([3]; po, no dose footnote printed) [%] |
| --- | --- | --- | --- | --- | --- | --- |
| 250 | C[C@H](CCCc1cccnc1)NC(=O)c1ccc(-c2ccccc2)c(-c2ccccc2)c1 [(R)-3,4-diphenyl-N-[1-methyl-4-(3-pyridinyl)-butyl]benzamide] | 31 ± 4 | – | – | – | – |
| > 1000 | Cc1ccc(-c2ccc(-c3nnn(CCCCCCc4cccnc4)n3)cc2)cc1C [3-[6-[5-(3',4'-Dimethyl-[1,1'-biphenyl]-4-yl)-2H-tetrazol-2-yl]hexyl]pyridine] | 40 ± 4 | – | – | – | – |
| 125 | COc1ccc(-c2ccc(C(=O)NCCCCc3cccnc3)cc2-c2ccc(OC)cc2)cc1 [3,4-bis-(4,Methoxyphenyl)-N-[4-(3-pyridinyl)butyl]-benzamide] | 26 ± 6 | – | – | – | – |
| 200 | COc1ccc(-c2ccc(C(=O)NCCCCc3cccnc3)cc2[N+](=O)[O-])cc1OC [2-Nitro-3',4'-dimethoxy-N-[4-(3-pyridinyl)-butyl][1,1'-biphenyl]-4-carboxamide] | 81 ± 15 | 62 ± 15 | – | – | – |
| – | CCCCc1cc(C(=O)N[C@H](C)CCCc2cccnc2)ccc1-c1ccc(OC)c(OC)c1 [(R)-2-Butyl-3',4'-dimethoxy-N-[1-Methyl-4-(3-pyridinyl)butyl][1,1'-biphenyl]-4-carboxamide] | 55 ± 12 | – | – | – | – |
| 50 | CCCc1cc(C(=O)N[C@H](C)CCCc2cccnc2)ccc1-c1ccccc1 [(R)-2-Propyl-N-[1-methyl-4-(3-pyridinyl)-butyl]-[1,1'-biphenyl]-4-carboxamide] | 12 ± 6 | – | – | – | – |
| 620 | O=C(NCCCCc1cccnc1)c1cccc(-c2ccccc2)c1 [N-[4-(3-pyridinyl)butyl][1,1'-biphenyl]-3-carboxamide] | 14 ± 10 | – | – | – | – |
| 500 | CCCCc1cc(C(=O)NCCCCc2cccnc2)ccc1-c1ccccc1 [2-Butyl-N-[4-(3-pyridinyl)butyl][1,1'-biphenyl]-4-carboxamide] | 27 ± 10 | – | – | – | – |
| 50 | CCCc1cc(C(=O)N[C@H](C)CCCc2cccnc2)ccc1-c1ccc(OC)c(OC)c1 [(R)-3',4'-Dimethoxy-N-[1-methyl-4-(3-pyridinyl)butyl]-2-propyl-[1,1'-biphenyl]-4-carboxamide] | 28 ± 12 | – | – | – | – |
| – | CCCCc1cc(C(=O)NCCCCc2cccnc2)ccc1-c1ccc(OC)c(OC)c1 [2-Butyl-3',4'-dimethoxy-N-[4-(3-pyridinyl)butyl][1,1'-biphenyl)-4-carboxamide] | 6 ± 4 | – | – | – | – |
| 300 | COc1ccc(-c2ccc(C(=O)NCCCCc3cccnc3)cc2OC)cc1OC [2,3',4'-trimethoxy-N-[4-(3-pyridinyl)butyl]-[1,1'-biphenyl]-4-carboxamide] | 58 ± 10 | – | – | – | – |
| > 1000 | Cc1ccc(-c2ccc(-c3nnn(CCCCc4cccnc4)n3)cc2)cc1C [3-[4-[5-(3',4'-Dimethyl-[1,1'-biphenyl]-4-yl)-2H-tetrazol-2-yl]butyl]pyridine] | 17 ± 15 | – | – | – | – |
| > 1000 | CCCCc1ccc(C(=O)NCCCCc2cccnc2)cc1CCCC [3,4-Dibutyl-N-[4-(3-pyridinyl)butyl]benzamide] | – | – | – | – | – |
| – | COc1ccc(-c2ccc(C(=O)N[C@H](C)CCCc3cccnc3)cc2)cc1OC [(R)-3',4'-Dimethoxy-N-[1-methyl-4-(3-pyridinyl)butyl][1,1'-biphenyl]-4-carboxamide] | 65 ± 11 | 88 ± 3 | – | – | – |
| 600 | Cc1ccc(-c2ccc(C(=S)NCCCCc3cccnc3)cc2)cc1C [3',4'-Dimethyl-N-[4-(3-pyridinyl)butyl][1,1-biphenyl]-4-carbothioamide] | – | – | potentiation | – | – |
| – | COc1ccc(-c2ccc(C(=O)NC(C)CCCc3cccnc3)cc2)cc1OC (racemic) [(rac.)-3',4'-Dimethoxy-N-[1-methyl-4-(3-pyridinyl)butyl][1,1'-biphenyl]-4-carboxamide] | – | – | – | 26 | 75 ± 21 |
| 80 | C=CCc1cc(C(=O)N[C@H](C)CCCc2cccnc2)ccc1-c1ccc(OC)c(OC)c1 [(R)-3',4'-Dimethoxy-N-[1-methyl-4-(3-pyridinyl)butyl]-2-(2-propenyl)-[1,1'-biphenyl]-4-carboxamide] | 80 ± 11 | 93 ± 3 | – | – | – |
| 180 | COc1ccc(-c2ccc(C(=O)N[C@H](C)CCCc3cccnc3)cc2Br)cc1OC [(R)-2-Bromo-3',4'-dimethoxy-N-[1-methyl-4-(3-pyridinyl)-butyl][1,1'-biphenyl]-4-carboxamide] | 98 ± 0.7 | 97 ± 1 | – | – | – |
| 60 | CCCc1cc(C(=O)NCCCCc2cccnc2)ccc1-c1ccccc1 [2-Propyl-N-[4-(3-pyridinyl)butyl][1,1'-biphenyl]-4-carboxamide] | 38 ± 8 | – | – | – | – |
| > 1000 | Cc1ccc(-c2ccc(-c3nnn(CCCc4cccnc4)n3)cc2)cc1C [3-[3-[5-(3',4'-Dimethyl-[1,1'-biphenyl]-4-yl)-2H-tetrazol-2-yl]propyl]pyridine] | 11 ± 3 | – | – | – | – |
| 4 | CCc1cc(C(=O)N[C@H](C)CCCc2cccnc2)ccc1-c1ccc(OC)c(OC)c1 [(R)-2-Ethyl-3',4'-dimethoxy-N-[1-methyl-4-(3-pyridinyl)butyl][1,1'-biphenyl]-4-carboxamide] | 93 ± 1 | 89 ± 5 | – | – | – |
| – | O=C(NCCCCc1cccnc1)c1ccc(-c2ccccc2)c(-c2ccccc2)c1 [3,4-Diphenyl-N-[4-(3-pyridinyl)butyl]-benzamide] | 21 ± 4 | 33 ± 12 | – | 49 | – |
| 400 | O=C(NCCCCc1cccnc1)c1ccc(-c2cccc(F)c2)c(-c2cccc(F)c2)c1 [3,4-bis-(3-Fluorophenyl)-N-[4-(3-pyridinyl)butyl]-benzamide] | 12 ± 2 | – | – | – | – |
| – | COc1cccc(-c2ccc(C(=O)NCCCCc3cccnc3)cc2-c2cccc(OC)c2)c1 [3,4-bis-(3-Methoxyphenyl)-N-[4-(3-pyridinyl)butyl]-benzamide] | 12 ± 6 | – | – | 4 | – |
| 250 | O=C(NCCCCc1cccnc1)c1ccc(C2CCCCC2)cc1 [4-Cyclohexyl-N-[4-(3-pyridinyl)butyl]-benzamide] | 17 ± 7 | – | – | – | – |
| 200 | COc1ccc(-c2ccc(C(=O)NCCCCc3cccnc3)cc2Br)cc1OC [2-Bromo-3',4'-dimethoxy-N-[4-(3-pyridinyl)butyl]-[1,1'biphenyl]-4-carboxamide] | 81 ± 10 | 74 ± 12 | – | – | – |
| 200 | COc1ccc(-c2ccc(C(=O)N[C@H](C)CCCc3cccnc3)cc2[N+](=O)[O-])cc1OC [(R)-2-Nitro-3',4'-dimethoxy-N-[1-methyl-4-(3-pyridinyl)-butyl][1,1'-biphenyl]-4-carboxamide] | 97 ± 4 | 89 ± 8 | – | – | – |

— US4916145A, “Substituted n-[(pyridyl)alkyl]aryl-carboxamide” (Hoffmann-La Roche Inc., priority 1987, dated 1990)
